The record followed here is patent US9732047B2, “N-alkoxyamide conjugates as imaging agents” (Lantheus Medical Imaging, Inc., priority 2008, dated 2017).

SMILES strings stand for the structures.

The subject of one data set is aorta.
Assay: not given
To be noted: ApoE mice on high-fat diet 35-42 weeks, 0.3-0.4 mCi/kg bolus via tail vein, 60 min post injection. On the procedure: The apolipoprotein E (ApoE) knockout mouse is a model of hypercholesterolemia that develops atherosclerotic lesions in the brachiocephalic artery, the aortic arch and the abdominal aorta. Mice were fed a high-fat diet to accelerate plaque formation and compounds were tested in the mice between 35-42 weeks on diet. Test compounds were administered at 0.3-0.4 mCi/kg to anesthetized mice in a single, bolus injection via the tail vein. Blood samples were collected via the tail between 0-30 min post injection for pharmacokinetic analysis and mice were euthanized by CO2 at 60 min for tissue harvesting. The aorta was first flushed with saline through the left ventricle exiting via the femoral vein then removed from the heart to the renal bifurcation; additional biological samples were also collected (blood, muscle, liver, kidney, bile, urine, heart, femur, reproductive organ, lung, spleen and innominate artery). All samples were weighed and assayed for radioactivity; uptake is expressed as a percentage of injected dose per gram of tissue (% ID/g).
Consider `[153Gd+3].[NH3+][C@H](CCc1ccccc1)C(=O)NOCCCc1ccc(CNC(=O)CN(CCN(CC(=O)[O-])CC(=O)[O-])CCN(CC(=O)[O-])CC(=O)[O-])cc1` [Example 44], for which the “aorta uptake (% ID/g)” value was determined as 8.4 ± 0.2 % ID/g.

In the case of `[153Gd+3].[NH3+][C@H](Cc1c[nH]c2ccccc12)C(=O)NOCCCc1ccc(CNC(=O)CN(CCN(CC(=O)[O-])CC(=O)[O-])CCN(CC(=O)[O-])CC(=O)[O-])cc1` [Example 43], the “aorta uptake (% ID/g)” value stood at 6.0 ± 1.7 % ID/g.

As for `[153Gd+3].[NH3+][C@H](CCc1ccccc1)C(=O)NOc1ccc(CNC(=O)CN(CCN(CC(=O)[O-])CC(=O)[O-])CCN(CC(=O)[O-])CC(=O)[O-])cc1` [Example 47], the “aorta uptake (% ID/g)” value was 4.7 ± 0.4 % ID/g.

Regarding `[153Gd+3].[NH3+][C@H](CCc1ccccc1)C(=O)NOCCc1ccc(CNC(=O)CN(CCN(CC(=O)[O-])CC(=O)[O-])CCN(CC(=O)[O-])CC(=O)[O-])cc1` [Example 50], the “aorta uptake (% ID/g)” value is 10.4 ± 2.4 % ID/g.

`CC(C)C[C@@H]([NH3+])C(=O)NOCCc1ccc(CNC(=O)CN(CCN(CC(=O)[O-])CC(=O)[O-])CCN(CC(=O)[O-])CC(=O)[O-])cc1.[153Gd+3]` [Example 49]: the “aorta uptake (% ID/g)” value was 4.9 ± 0.2 % ID/g.

Take `CC(C)C[C@@H](N)C(=O)NOCc1ccc(CNC(=O)CN2CCN(CC(=O)[O-])CCN(CC(=O)[O-])CCN(CC(=O)[O-])CC2)cc1.[153Gd+3]` [Example 59]: the “aorta uptake (% ID/g)” value was found to be 8.2 ± 1.3 % ID/g.

`[153Gd+3].[NH3+][C@H](Cc1ccc2ccccc2c1)C(=O)NOCc1ccc(CNC(=O)CN(CCN(CC(=O)[O-])CC(=O)[O-])CCN(CC(=O)[O-])CC(=O)[O-])cc1` [Example 57]: the “aorta uptake (% ID/g)” value worked out at 11.1 ± 0.3 % ID/g.

The same data set, now with this note: ApoE mice, 60 min post injection, uptake ratio.
`[153Gd+3].[NH3+][C@H](CCc1ccccc1)C(=O)NOCCCc1ccc(CNC(=O)CN(CCN(CC(=O)[O-])CC(=O)[O-])CCN(CC(=O)[O-])CC(=O)[O-])cc1` [Example 44]: the “aorta:blood” value came out at 3.2 and the “aorta:heart” value came out at 12.5.

Turning to `[153Gd+3].[NH3+][C@H](Cc1c[nH]c2ccccc12)C(=O)NOCCCc1ccc(CNC(=O)CN(CCN(CC(=O)[O-])CC(=O)[O-])CCN(CC(=O)[O-])CC(=O)[O-])cc1` [Example 43], the “aorta:blood” value was 2.7 and the “aorta:heart” value is listed as 9.0.

In the case of `[153Gd+3].[NH3+][C@H](CCc1ccccc1)C(=O)NOc1ccc(CNC(=O)CN(CCN(CC(=O)[O-])CC(=O)[O-])CCN(CC(=O)[O-])CC(=O)[O-])cc1` [Example 47], the “aorta:blood” value is reported as 0.7 and the “aorta:heart” value was determined as 4.8.

With `[153Gd+3].[NH3+][C@H](CCc1ccccc1)C(=O)NOCCc1ccc(CNC(=O)CN(CCN(CC(=O)[O-])CC(=O)[O-])CCN(CC(=O)[O-])CC(=O)[O-])cc1` [Example 50], the “aorta:blood” value is listed as 3.7 and the “aorta:heart” value amounted to 13.5.

As to `CC(C)C[C@@H]([NH3+])C(=O)NOCCc1ccc(CNC(=O)CN(CCN(CC(=O)[O-])CC(=O)[O-])CCN(CC(=O)[O-])CC(=O)[O-])cc1.[153Gd+3]` [Example 49], the “aorta:blood” value is listed as 5.5 and the “aorta:heart” value worked out at 22.9.

On to `CC(C)C[C@@H](N)C(=O)NOCc1ccc(CNC(=O)CN2CCN(CC(=O)[O-])CCN(CC(=O)[O-])CCN(CC(=O)[O-])CC2)cc1.[153Gd+3]` [Example 59], for which the “aorta:blood” value is 3.7 and the “aorta:heart” value came to 15.4.

Consider `[153Gd+3].[NH3+][C@H](Cc1ccc2ccccc2c1)C(=O)NOCc1ccc(CNC(=O)CN(CCN(CC(=O)[O-])CC(=O)[O-])CCN(CC(=O)[O-])CC(=O)[O-])cc1` [Example 57], for which the “aorta:blood” value was 5.0 and the “aorta:heart” value is reported as 17.8.

Another data set has as its system Aorta bearing atherosclerotic plaque. The data set can be described thus: Ex-vivo blood vessel binding assay. To be noted: 153Gd-labeled compound 0.135 μCi in PBS, 2 h at 37° C., plaque-bearing rabbit aorta sections; percentage of initial activity. Further details: species or system New Zealand white rabbits. On the procedure:
Aorta bearing atherosclerotic plaque was obtained from New Zealand white rabbits that were balloon stripped along the abdominal aorta and placed on a high fat diet (0.5% cholesterol) for 16-22 weeks. Vascular injury was produced with a 4-F Fogarty catheter along the abdominal aorta and right iliofemoral artery. This procedure generates an accelerated complex lesion development with a lipid rich core covered by a fibrous cap in rabbits. Harvested aorta sections (0.5 cm) were incubated with 0.135 μCi of ^153Gd-labeled compound diluted in phosphate buffered saline (450 μL) for 2 h at 37° C. The supernatant was removed and analyzed by HPLC to assay compound stability. The tissue section was then washed with phosphate buffered saline (3×10 mL), then resuspended (10 mL) and incubated at 37° C. an additional 1 h. The supernatant was then removed, the washing process repeated and the tissue finally counted on a gamma counter. The amount of compound bound to the tissue was determined as a percentage of the initial activity according to the following formula: […]
Turning to `[153Gd+3].[NH3+][C@H](CCc1ccccc1)C(=O)NOCCCc1ccc(CNC(=O)CN(CCN(CC(=O)[O-])CC(=O)[O-])CCN(CC(=O)[O-])CC(=O)[O-])cc1` [Example 44], the “% bound” value amounted to 27.3%.

Turning to `[153Gd+3].[NH3+][C@H](Cc1c[nH]c2ccccc12)C(=O)NOCCCc1ccc(CNC(=O)CN(CCN(CC(=O)[O-])CC(=O)[O-])CCN(CC(=O)[O-])CC(=O)[O-])cc1` [Example 43], the “% bound” value is 27.1%.

Regarding `[153Gd+3].[NH3+][C@H](CCc1ccccc1)C(=O)NOc1ccc(CNC(=O)CN(CCN(CC(=O)[O-])CC(=O)[O-])CCN(CC(=O)[O-])CC(=O)[O-])cc1` [Example 47], the “% bound” value is 6.6%.

As for `[153Gd+3].[NH3+][C@H](CCc1ccccc1)C(=O)NOCCc1ccc(CNC(=O)CN(CCN(CC(=O)[O-])CC(=O)[O-])CCN(CC(=O)[O-])CC(=O)[O-])cc1` [Example 50], the “% bound” value came out at 24.2%.

Consider `CC(C)C[C@@H]([NH3+])C(=O)NOCCc1ccc(CNC(=O)CN(CCN(CC(=O)[O-])CC(=O)[O-])CCN(CC(=O)[O-])CC(=O)[O-])cc1.[153Gd+3]` [Example 49], for which the “% bound” value stood at 9.1%.

As to `CC(C)C[C@@H](N)C(=O)NOCc1ccc(CNC(=O)CN2CCN(CC(=O)[O-])CCN(CC(=O)[O-])CCN(CC(=O)[O-])CC2)cc1.[153Gd+3]` [Example 59], the “% bound” value is 5.2%.

For `[153Gd+3].[NH3+][C@H](Cc1ccc2ccccc2c1)C(=O)NOCc1ccc(CNC(=O)CN(CCN(CC(=O)[O-])CC(=O)[O-])CCN(CC(=O)[O-])CC(=O)[O-])cc1` [Example 57], the “% bound” value came out at 30.6%.

The test system of a further data set is aorta. The data set can be described thus: In vivo rabbit aorta MR imaging. Further details: species or system New Zealand White male rabbits. The note with it: atherosclerotic rabbit, 0.1 mmol/kg via marginal ear vein, MR at 4.7 T, shortly after injection. The protocol: A series of pre-injection images were acquired. The rabbit was then injected with test compound (i.e., Example 31) at 0.1 mmol/kg via the marginal ear vein and images acquired at specified time intervals. All images were acquired at 4.7 T using an 8.5 cm field of view, 256×256 matrix using a black blood, flow-suppressed spin-echo method.
On to `CC(C)C[C@@H](N)C(=O)NOCc1ccc(CNC(=O)CN2CCN(CC(=O)[O-])CCN(CC(=O)[O-])CCN(CC(=O)[O-])CC2)cc1.[Gd+3]` [Example 31], for which the “relative image intensity in the aorta” value is “marked increase of relative image intensity in the aorta”.
